From patent US20250172577A1, “METHODS FOR THE DETECTION AND TREATMENT OF CANCER” (Board of Regents, The University of Texas System, priority 2022, published 2025)
Where two headings read alike, the source gives them in different places.

Assays:
[1] = molecular target: T1, UGT8 (Mus musculus, UniProt Q64676); conditions: cited from earlier work
T1 construct: host or cells: mouse (in vivo, endogenous enzyme)
T1 sequence (Q64676 21-541): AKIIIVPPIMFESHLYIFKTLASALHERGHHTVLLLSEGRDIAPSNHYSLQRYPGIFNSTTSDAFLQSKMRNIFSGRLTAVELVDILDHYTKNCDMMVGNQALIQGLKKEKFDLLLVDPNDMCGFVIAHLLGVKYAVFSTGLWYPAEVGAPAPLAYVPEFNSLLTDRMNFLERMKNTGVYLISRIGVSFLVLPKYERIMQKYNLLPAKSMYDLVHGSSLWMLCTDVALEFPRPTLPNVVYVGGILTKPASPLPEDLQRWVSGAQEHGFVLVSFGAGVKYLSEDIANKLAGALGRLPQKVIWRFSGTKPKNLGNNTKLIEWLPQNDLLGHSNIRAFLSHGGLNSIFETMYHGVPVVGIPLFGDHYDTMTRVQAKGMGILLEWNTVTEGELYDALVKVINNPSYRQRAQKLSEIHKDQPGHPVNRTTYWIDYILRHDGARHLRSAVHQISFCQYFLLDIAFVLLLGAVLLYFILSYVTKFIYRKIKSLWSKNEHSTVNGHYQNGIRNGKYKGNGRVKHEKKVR

[2] = system: mouse IPMN cell line LGKC 4861; experiment: Subcutaneous LGKC 4861 implant in athymic nude mice, tumor volume; assay type: in vivo; conditions: 3 mg/kg orally every other day from day 8 for 2 weeks, vs vehicle (saline)
[3] = system: LGKC 4301 cells; experiment: In vitro toxicity assay (MTS assay), mouse IPMN cell line LGKC 4301; assay type: cell-based; conditions: vs vehicle control
Protocol: (§1) Experiments were performed in technical triplicates. Statistical significance was determined by 2-sided Student T-test. […] UGT8 inhibitor UGT8-IN-1 or vehicle control (saline) was orally administrated every other day (3 mg/kg) from day-8 post cancer cell implantation for 2 weeks. Tumor volume was measured every 3 days. Statistical significance was determined by 2-way repeated measures ANOVA and treatment factor 2-sided p-value reported.
(§2) In vitro toxicity assays (MTS assays) were performed using three independent mouse IPMN cell lines (LGKC 4301, LGKC 4838, and LGKC 4861). Briefly, each cell line was treated with either vehicle control or the UGT8 inhibitors UGT8-IN-1 or zoledronic acid. Experiments were performed in technical triplicates. Statistical significance was determined by 2-sided Student T-test.

[4] = In vitro toxicity assay (MTS assay), mouse IPMN cell line LGKC 4861; assay type: cell-based
Protocol: as §1, §2

[5] = system: LGKC 4838 cells; experiment: In vitro toxicity assay (MTS assay), mouse IPMN cell line LGKC 4838; assay type: cell-based; conditions: vs vehicle control
Protocol: as §1, §2

Q: With CNC(=O)c1csc2c(C(F)(F)F)cc(N3CCC(OC(=O)NC(C)COC(F)(F)F)CC3)nc12 (stereo in doubt) [UGT8-IN-1, [1-[3-(methylcarbamoyl)-7-(trifluoromethyl)thieno[3,2-b]pyridin-5-yl]piperidin-4-yl]N-[(2S)-1-(trifluoromethoxy)propan-2-yl]carbamate] as the compound, how does the “inhibition of incorporation of 13C-Gal into GalCer and sulfatide” value ([1]; 3 mg/kg) read?
A: The value was > 90%.

Q: What about the “effective dose (ED)50” value ([1]; incorporation of 13C-Gal into GalCer and sulfatide) of the same compound?
A: The value was 1 mg/kg.

Q: What about the tumor volume [2] of the same compound?
A: Its tumor volume is “lower tumor volume compared to vehicle”.

Q: What about the “effect on cell viability (comparison of the two UGT8 inhibitors)” value [3] of the same compound?
A: The value was “slightly more effective”.

Q: And the cytotoxicity [4]?
A: Its cytotoxicity is ~80%.

Q: With O=P(O)(O)C(O)(Cn1ccnc1)P(=O)(O)O [zoledronic acid, Zoledronic acid] as the compound, how does the “effect on cell viability (comparison of the two UGT8 inhibitors)” value [3] read?
A: Its value is “performed similarly”.

Q: What about the cytotoxicity ([4]; LGKC 4861 mouse IPMN cells, LGKC 4861 cells, MTS assay, vs vehicle control, read-out: reduction in cell viability) of the same compound?
A: Its cytotoxicity is ~55%.

Q: And the “reduction in cell viability (comparison of the two UGT8 inhibitors)” value [5]?
A: The value was “greater reduction in cell viability than UGT8-IN-1”.
